Laboratory results taken from patent US11730830B2, “Topical application of nerve labeling dyes for image-guided surgery” (General Electric Company, priority 2016, dated 2023).

What was measured:
[1] = tested on: rat nerve tissue sections; experiment: Ex vivo labeling of cryosectioned nerve tissue; details: 10 uM, 1 h, buffer with 10% Cremophor EL and 65% rat serum in PBS
Source text: Various nerves were harvested from male Sprague Dawley rats. Tissue was fixed by perfusion and post-fixed with 10% neutral buffered formalin. Following post-fixation, tissue was cryoprotected in a 20% sucrose solution made in phosphate buffered saline (PBS). Nerves were then flash-frozen using methanol and dry ice in OCT media. In some cases, polyvinylidene fluoride membranes were used to help keep the nerves vertical in the OCT media. 5-10 micron section were sliced on a Leica microtome and stored in a −80° C. freezer prior to staining with agents (1)-(5).
For ex vivo staining of nerve sections, the slides were rinsed in PBS (3×5 min). Contrast agent (with a final concentration of 10 uM) was added onto the tissue in a buffer containing 10% Cremophor EL and 65% rat serum in PBS. The slides were incubated for 1 h in a dark, humid chamber after which they were washed with PBS (3×5 min), cover-slipped, and imaged using a custom filter cube (excitation filter: 387 nm with 11 nm band pass, 409 nm dichroic mirror; emission filter: 409 nm long pass). A buffer only control was also performed using exactly the same procedure to determine autofluorescence under the same settings.
Molecules that are related to the “push-pull” core structure of this class of compound would also benefit from this new method of application. The following is an example of ex vivo labeling of resected nerve tissue. In here, compounds used to stain cryo sectioned nerve tissue from rats.

[2] = tested on: nerves; experiment: Intraoperative topical application at the surgical site, fluorescence nerve imaging in murine model; assay type: in vivo, mouse
Experimental: (§1) Commercial small animal system: A fluorescence stereomicroscope (SteREO Lumar V12, Carl Zeiss Inc., Thornwood, N.Y.) equipped with a multispectral imaging camera (Nuance, CRI, Woburn, Mass.) was used with an exposure time of 1-5 s. Excitation of the flurophores was achieved using a filter centered at 406 nm with a 15 nm bandwidth. The fluorescence emission spectrum was recorded at wavelengths ranging from 420 to 720 nm at 10-nm increments using the attached multispectral camera. Alternatively, we had also used an emission filter with 550 long pass filter (in the absence of multispectral camera).
(§2) The laparoscope module comprises a standard 10 mm zero degree surgical laparoscope with 70 degree field of view, a 4 mm diameter, 1800 mm long laparoscope light guide, 35 mm video coupler, a compact 90 gram, 659×494 pixel GigE color camera (acA640-90gc Basler, Ahrensburg, Germany), and a 405 nm blocking filter (BLP01-405R Semrock, Rochester, N.Y.), which has >97% transmission from 420 to 800 nm. The ⅓″ format sensor provides high sensitivity with 7.4 μm pixel size and adequate field of view (40 degrees out of 70 degrees passed by the laparoscope). The video coupler interfaces with the eyepiece of the laparoscope providing an interchangeable set up for different types of laparoscopes. The 405 nm filter is secured directly in front of the image sensor with a c-mount retaining ring. The camera threads onto the video coupler directly.
Illumination for white light and fluorescence imaging is coupled into a single light guide using conventional optics. The light coupling module consists of two 32 mm aspheric lenses to collimate a white light LED and a 500 mW, 405 nm blue laser diode coupled into a multimode fiber with 400 μm diameter (Shanghai Laser & Optics Century Co., Ltd., China). The LED spectrum is filtered with a 450 nm long pass filter (NT49-819, Edmund Optics, Barrington, N.J.) to minimize excitation of the fluorescent agent, while maintaining the white light color spectrum. The LED and laser are combined with a 425 nm dichroic mirror (DMLP425R, Thorlabs). The combined illumination is coupled into the light guide with a third 32 mm aspheric lens (ACL4532, Thorlabs). The maximum irradiance from the LED and 405 nm laser are 2.0 mW/cm2 and 7.3 mW/cm2, respectively, at 25 mm from the tip of the laparoscope. Formulation, dosing, and kinetics for in vivo imaging following systemic IV injection of contrast agent in animal model:
Several different formulations were tested, including but not limited to: • Formulation 1: 10% PEG-300; 20% PG; 0.4% Carbopol; 69.6% water; • Formulation 2: 10% DMSO; 20% PEG-800; 20% PG; 0.1% Polysorbate-80; 49.9% Water; • Formulation 3: 30% PEG-300; 5% DMSO; 10% PVA; 55% water; • Formulation 4: 30% PEG-300; 10% PVA; 60% water; • Formulation 5: 30% PEG-300; 5% DMSO; 30% Pluronic F-68; 0.1% Polysorbate-80; 34.9% water; • Formulation 6: 20% PEG-300; 10% PG; 5% PVP; 5% Laurocapram; 60% water; • Formulation 7: 20% PEG-300; 10% PG; 5% PVP; 5% Laurocapram; 5% EtOH; 5% oleic acid; 10% Tween-80; 40% water; where: PVA=polyvinyl alcohol; PVP=polyvinyl pyrrolidone; and PEG=polyethylene glycol. […]
Topically administered nerve labeling dyes were also able to label nerves in a living animal. The fluorescence from nerves can be detected within minutes after intraoperative topical application. Representative white light and fluorescence images of topically administered FORMULA I(f) in a mouse are shown in FIG. 2A (white light) and FIG. 2B (fluorescence). […]

[3] = tested on: nerve; experiment: Intraoperative topical application in porcine surgical model, real-time fluorescence imaging; assay type: in vivo; details: pig
Source text: as §2
Illumination for white light and fluorescence imaging is coupled into a single light guide using conventional optics. The light coupling module consists of two 32 mm aspheric lenses to collimate a white light LED and a 500 mW, 405 nm blue laser diode coupled into a multimode fiber with 400 μm diameter (Shanghai Laser & Optics Century Co., Ltd., China). The LED spectrum is filtered with a 450 nm long pass filter (NT49-819, Edmund Optics, Barrington, N.J.) to minimize excitation of the fluorescent agent, while maintaining the white light color spectrum. […]

[4] = tested on: sciatic nerve; experiment: Kinetics of uptake and clearance after systemic IV injection, in vivo fluorescence imaging; design: species or system murine; details: IV injection 16.6 mg/kg
Experimental: as §1
(§3) For systemic administration by IV injection, the contrast agents were formulated using the following excipients: 5-15% propylene glycol (Fisher P355-1), 5-30% 2-hydroxypropyl-β-cyclodextrin (2-HPβCD, Sigma H5784) and 70-90% distilled/deionized water. In some cases, PEG-300 and DMSO were also added. The IV formulation was brought to a final pH of 7.4 using 1M of hydrochloric acid.
Specifically, IV formulation for FORMULA I(f) consisted of 80% distilled/deionized water, 10% 2-hydroxypropyl-β-cyclodextrin (2-HPβCD, Sigma H5784), and 10% propylene glycol (Fisher P355-1). […]
A dose of 16.6 mg/kg of FORMULA I(f) was used for measuring the nerve fluorescence at 0.5, 1, 2, 3 and 4 hours after IV injection. […]

[5] = Solubility check of the IV formulation; assay type: physicochemical; details: propylene glycol, 2-HPβCD, water, pH 7.4; visual, centrifugation, buffer dissolution, dynamic light scattering
Experimental: as §3
Specifically, IV formulation for FORMULA I(f) consisted of 80% distilled/deionized water, 10% 2-hydroxypropyl-β-cyclodextrin (2-HPβCD, Sigma H5784), and 10% propylene glycol (Fisher P355-1).

COc1cc(/C=C/c2ccc(C#N)cc2)ccc1/C=C/c1ccc(N)cc1 [FORMULA I(d)]
fluorescent staining of nerve tissue sections [1]: most robust fluorescent staining | nerve labeling by topical application ([2]; mouse, small animal commercial instrument): fluorescence nerve labeling

COc1cc(/C=C/c2ccc(S(C)(=O)=O)cc2)ccc1/C=C/c1ccc(N)cc1 [FORMULA I(e)]
fluorescent staining of nerve tissue sections [1]: most robust fluorescent staining

COc1cc(/C=C/c2ccc(S(=O)(=O)N3CCN(CCO)CC3)cc2)ccc1/C=C/c1ccc(N)cc1 [FORMULA I(f)]
nerve visibility under fluorescence imaging versus white light ([3]; 0.3 milligrams in Formulation 6, retroperitoneal area, 3 minutes, saline irrigation): more pronounced under fluorescence imaging compared to white light imaging | nerve visibility under fluorescence guidance versus white light ([3]; 4 milligrams in Formulation 4, 5 minutes, warm saline irrigation): highly detectable under fluorescence guidance | best nerve-to-muscle ratio ([4]; 1 h post-injection, murine model): 3.7 | time of maximum sciatic nerve and adipose tissue fluorescence ([4]; measured at 0.5, 1, 2, 3 and 4 hours): 1 h | fluorescent staining of nerve tissue sections [1]: most robust fluorescent staining | solubility in the IV formulation [5]: Complete solubility | topical dose that effectively visualizes fluorescent nerves ([2]; Formulation 6, incubated 3 minutes, irrigated with saline, mouse model): 0.01 mg | penetration into the nerve bundle, fluorescence microscopy of cryosectioned sciatic nerve ([2]; after topical application, irrigation and excision, 15 micron sections, murine model): donut-shaped myelin bundles are stained | fluorescence intensity from surrounding muscle tissue, topical versus systemic administration ([2]; topical about 0.1 milligrams in Formulation 4 versus IV about 16 mg/kg, multispectral imaging, murine model): lower across all the emission wavelengths | detection of very fine nerve fibers in a brachial plexus branch ([2]; topical in Formulation 4, 5 minutes, irrigated with sterile saline, dual-mode laparoscopic instrument, mouse): more readily detected under fluorescence guidance
